Entries after “also recorded” stand apart in the source; their conditions may differ. Square brackets hold non-standard residues; d marks the D form. Ends that are not written are not given here.
Tests used:
[1] = test system: plasma membrane of several mammalian cell types; conditions: energy-independent manner; cited from earlier work
[2] = test system: melanocytes from human subjects diagnosed with vitiligo (VHM); test: Mitochondrial membrane potential of melanocytes (JC-1 probe); type: cell-based; conditions: peptide at 1.5 μM and 2.0 μM added each day for 7 days, vs 0 μM and untreated NHM
Method: Cultured melanocytes from each patient were divided into three groups, wherein each group was treated with D-Arg-2′,6′-Dmt-Lys-Phe-NH2 at 0 μM, 1.5 μM, and 2 μM. D-Arg-2′,6′-Dmt-Lys-Phe-NH2 added to the growth media each day for 7 days. After 7 days, mitochondrial membrane potential (ΔΨm) of the melanocytes were assessed with a JC-1 probe (see, e.g., JC-1 Mitochondrial Membrane Potential Assay Kit, Cayman Chemical Co., Ann Arbor, Mich.).

[3] = test system: melanocytes from human subjects diagnosed with vitiligo (VHM); test: ATP production of melanocytes (fluorimetric determination); type: cell-based; conditions: 2 μM added each day for 3 days, vs untreated (0 μM)
Method: Melanocytes were isolated and cultured from two human patients diagnosed with vitiligo (VHM). Cultured melanocytes from each patient were divided into two groups, wherein each group was treated with D-Arg-2′,6′-Dmt-Lys-Phe-NH2 at 0 μM and 2 μM. D-Arg-2′,6′-Dmt-Lys-Phe-NH2 was added to the growth media each day for 3 days. After 3 days, the melanocytes were lysed and ATP levels were measures by fluorimetric determination. Each assay was performed in triplicate.

vitiligo mice = test: Progressive depigmentation in the pelage of the vitiligo mouse model; type: in vivo; conditions: 0.25 mg/kg/day for four weeks before plucking, 2 weeks after plucking dorsal hairs, vs untreated
Method: Vitiligo mice described in Lerner et al., Journal of Investigative Dermatology, 87: 299-304 (1986) are obtained. Vitiligo mice are subdivided into 2 groups. Group I mice are administered a daily dose of 0.25 mg/kg/day of D-Arg-2′,6′-Dmt-Lys-Phe-NH2 for four weeks before plucking dorsal hairs whereas Group II vitiligo mice are treated with drug vehicle before plucking. The regrowth of amelanotic hairs is monitored via light microscopy.

mu-opioid receptor = mu-opioid receptor (Homo sapiens, UniProt P35372); conditions: stated in the description, no test described; cited from earlier work
Sequence of mu-opioid receptor (P35372 whole entry, species assumed): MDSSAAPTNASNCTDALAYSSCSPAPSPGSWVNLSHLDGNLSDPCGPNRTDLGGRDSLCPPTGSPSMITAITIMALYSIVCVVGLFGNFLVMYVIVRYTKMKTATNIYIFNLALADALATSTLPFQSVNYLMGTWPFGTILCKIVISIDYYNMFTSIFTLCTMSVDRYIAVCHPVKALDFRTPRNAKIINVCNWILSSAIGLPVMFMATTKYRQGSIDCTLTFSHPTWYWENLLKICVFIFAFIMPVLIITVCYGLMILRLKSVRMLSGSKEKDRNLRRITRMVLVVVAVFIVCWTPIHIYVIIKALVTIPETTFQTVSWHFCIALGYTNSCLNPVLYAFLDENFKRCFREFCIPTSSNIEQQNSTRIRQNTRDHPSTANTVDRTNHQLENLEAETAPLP

[4] = test system: autologous vitiligo skin explants; test: T-cell accumulation and cytotoxic activity in autologous vitiligo skin explants; type: in vivo, human; conditions: vitiligo patients, 0.25 mg/kg/day for twelve weeks, perilesional T-cells co-cultured with autologous skin explants 2 days
Method: Active vitiligo patients are subdivided into 2 groups. Group I subjects are administered a daily dose of 0.25 mg/kg/day of D-Arg-2′,6′-Dmt-Lys-Phe-NH2 for twelve weeks whereas Group II vitiligo subjects are treated with drug vehicle and serve as controls. Punch-biopsies are obtained flanking the depigmented macule from Group I and Group II vitiligo subjects. These biopsies are cultured to promote T-cell growth according to the procedures described in Van Den Boom et al., Journal of Investigative Dermatology, 129: 2220-2232 (2009). The ability of these perilesional T-cells to infiltrate and actively kill melanocytes within the skin tissue microenvironment is tested using skin explant assays. Autologous skin explants are generated according to the procedures described in Van Den Boom et al., Journal of Investigative Dermatology, 129: 2220-2232 (2009). Perilesional T-cells are co-cultured with normally pigmented autologous skin explants for 2 days. T-cells are allowed to infiltrate the skin explants and migrate toward the melanocytes located at the dermal-epidermal junction. Skin explant cryosections are analyzed for the presence of infiltrated T-cells, melanocytes, and apoptosis by immunohistochemistry or immunofluorescence as described in Van Den Boom et al., Journal of Investigative Dermatology, 129: 2220-2232 (2009).

[5] = test system: adoptive transfer mouse model of vitiligo; test: Epidermal depigmentation in an adoptive transfer mouse model of vitiligo; type: in vivo; conditions: adoptive transfer vitiligo mice, 0.25 mg/kg/day for four weeks; tail, nose, footpad; vs untreated
Method: Vitiligo mice described in Harris et al., Journal of Investigative Dermatology, 132: 1869-1876 (2012) are obtained. This adoptive transfer mouse model of vitiligo recapitulates the human condition by inducing epidermal depigmentation while sparing the hair. These mice are subdivided into 2 groups. Group I mice are administered a daily dose of 0.25 mg/kg/day of D-Arg-2′,6′-Dmt-Lys-Phe-NH2 for four weeks whereas Group II vitiligo mice are treated with drug vehicle and serve as controls. The loss of pigmentation in epidermal tissues such as the tail, nose and footpad is monitored via light microscopy.

## 2′,6′-Dmt-D-Arg-Phe-Lys-NH2
[1]
  penetration of the plasma membrane: readily penetrates the plasma membrane

## D-Arg-2′,6′-Dmt-Lys-Phe-NH2
[2]
  mitochondrial membrane potential (ΔΨm) of VHM melanocytes: returned the mitochondrial membrane potential of the VHM melanocytes to levels found in untreated NHM melanocytes; also recorded: increased the mitochondrial membrane potential
[2]; listed as D-Arg-2′6′-Dmt-Lys-Phe-NH2
  mitochondrial membrane potential (ΔΨm) of VHM melanocytes: nearly doubled
[3]
  ATP production of VHM melanocytes: elevated ATP production levels; also recorded: increased the ATP production
Vitiligo mice
  rate of progressive depigmentation: reduced rate of progressive depigmentation
mu-opioid receptor
  mu-opioid receptor agonist activity: does not have mu-opioid receptor agonist activity
[4]
  melanocyte survival rates in skin explants: greater than untreated vitiligo explants
[5]
  severity of depigmentation in epidermal tissues: reduced severity of depigmentation

## F[dR]FK-NH2
mu-opioid receptor
  mu-opioid receptor agonist activity: does not have mu-opioid receptor agonist activity

## Tyr-D-Arg-Phe-Lys-NH2
mu-opioid receptor
  mu-opioid receptor agonist activity: has mu-opioid receptor agonist activity
